In PubChem BioAssay AID2060503 (Molecular Pharmacology Branch, DTP, NCI, 2025):

System: 817829-284-R-J1-PDC complex spheroids, viability
Assay: Anticancer human tumor 817829-284-R-J1-PDC patient-derived colon adenocarcinoma cell line growth inhibition [GQUAD]
Settings: second compound 1 µM; first compound 0.1 µM; active compounds read low
Outline: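 Viability of tumor cells grown as complex spheroids with endothelial and stromal cells, exposed to drug combinations. Top concentration at or near clinical Cmax (else 10 microM), diluted in half-log increments.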
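Note: spheroids exposed to agents for 7 days before readout; percent viability relative to DMSO vehicle control taken as 100%.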

| Structure (SMILES) | viability, T/C [%] |
| --- | --- |
| CCCS(=O)(=O)Nc1ccc(F)c(C(=O)c2c[nH]c3ncc(-c4ccc(Cl)cc4)cc23)c1F + Cc1cnc(CNC(=O)c2c(=O)c3ccc(N4CCCN(C)CC4)nc3n3c2sc2ccccc23)cn1 | 19.7 |
| O=C(NO)c1cnc(N2CCN(S(=O)(=O)c3ccc4ccccc4c3)CC2)nc1 + Cc1cnc(CNC(=O)c2c(=O)c3ccc(N4CCCN(C)CC4)nc3n3c2sc2ccccc23)cn1 | 16.4 |

Same assay, conditions: second compound 1 µM; first compound 0.316 µM; active compounds read low

| Structure (SMILES) | viability, T/C [%] |
| --- | --- |
| C#Cc1c(F)ccc2cc(O)cc(-c3ncc4c(N5CC6CCC(C5)N6)nc(OCC56CCCN5CC(F)C6)nc4c3F)c12 (configuration not stated) + Cc1cnc(CNC(=O)c2c(=O)c3ccc(N4CCCN(C)CC4)nc3n3c2sc2ccccc23)cn1 | 20.6 |
| C=CCn1c(=O)c2cnc(Nc3ccc(N4CCN(C)CC4)cc3)nc2n1-c1cccc(C(C)(C)O)n1 + Cc1cnc(CNC(=O)c2c(=O)c3ccc(N4CCCN(C)CC4)nc3n3c2sc2ccccc23)cn1 | 13.9 |
| CC(C)(O)C1CCC(Nc2ccc3ncc(-c4cccc(C(F)(F)F)c4)n3n2)CC1 (configuration not stated) + Cc1cnc(CNC(=O)c2c(=O)c3ccc(N4CCCN(C)CC4)nc3n3c2sc2ccccc23)cn1 | 21 |
| CCCS(=O)(=O)Nc1ccc(F)c(C(=O)c2c[nH]c3ncc(-c4ccc(Cl)cc4)cc23)c1F + Cc1cnc(CNC(=O)c2c(=O)c3ccc(N4CCCN(C)CC4)nc3n3c2sc2ccccc23)cn1 | 18.6 |
| Cc1[nH]c2ccccc2c1CCNCc1ccc(/C=C/C(=O)NO)cc1 + Cc1cnc(CNC(=O)c2c(=O)c3ccc(N4CCCN(C)CC4)nc3n3c2sc2ccccc23)cn1 | 0.06 |
| O=C(NO)c1cnc(N2CCN(S(=O)(=O)c3ccc4ccccc4c3)CC2)nc1 + Cc1cnc(CNC(=O)c2c(=O)c3ccc(N4CCCN(C)CC4)nc3n3c2sc2ccccc23)cn1 | 1.77 |

Same assay, conditions: second compound 1 µM; first compound 1 µM; active compounds read low

| Structure (SMILES) | viability, T/C [%] |
| --- | --- |
| C#Cc1c(F)ccc2cc(O)cc(-c3ncc4c(N5CC6CCC(C5)N6)nc(OCC56CCCN5CC(F)C6)nc4c3F)c12 (configuration not stated) + Cc1cnc(CNC(=O)c2c(=O)c3ccc(N4CCCN(C)CC4)nc3n3c2sc2ccccc23)cn1 | 21.8 |
| C=CCn1c(=O)c2cnc(Nc3ccc(N4CCN(C)CC4)cc3)nc2n1-c1cccc(C(C)(C)O)n1 + Cc1cnc(CNC(=O)c2c(=O)c3ccc(N4CCCN(C)CC4)nc3n3c2sc2ccccc23)cn1 | 10.2 |
| CC(C)(O)C1CCC(Nc2ccc3ncc(-c4cccc(C(F)(F)F)c4)n3n2)CC1 (configuration not stated) + Cc1cnc(CNC(=O)c2c(=O)c3ccc(N4CCCN(C)CC4)nc3n3c2sc2ccccc23)cn1 | 15.8 |
| CCCS(=O)(=O)Nc1ccc(F)c(C(=O)c2c[nH]c3ncc(-c4ccc(Cl)cc4)cc23)c1F + Cc1cnc(CNC(=O)c2c(=O)c3ccc(N4CCCN(C)CC4)nc3n3c2sc2ccccc23)cn1 | 14.5 |
| O=C(NO)c1cnc(N2CCN(S(=O)(=O)c3ccc4ccccc4c3)CC2)nc1 + Cc1cnc(CNC(=O)c2c(=O)c3ccc(N4CCCN(C)CC4)nc3n3c2sc2ccccc23)cn1 | 0.04 |

Same assay, conditions: second compound 1 µM; first compound 3.16 µM; active compounds read low

| Structure (SMILES) | viability, T/C [%] |
| --- | --- |
| C#Cc1c(F)ccc2cc(O)cc(-c3ncc4c(N5CC6CCC(C5)N6)nc(OCC56CCCN5CC(F)C6)nc4c3F)c12 (configuration not stated) + Cc1cnc(CNC(=O)c2c(=O)c3ccc(N4CCCN(C)CC4)nc3n3c2sc2ccccc23)cn1 | 23 |
| C=CCn1c(=O)c2cnc(Nc3ccc(N4CCN(C)CC4)cc3)nc2n1-c1cccc(C(C)(C)O)n1 + Cc1cnc(CNC(=O)c2c(=O)c3ccc(N4CCCN(C)CC4)nc3n3c2sc2ccccc23)cn1 | 7.61 |
| CC(C)(O)C1CCC(Nc2ccc3ncc(-c4cccc(C(F)(F)F)c4)n3n2)CC1 (configuration not stated) + Cc1cnc(CNC(=O)c2c(=O)c3ccc(N4CCCN(C)CC4)nc3n3c2sc2ccccc23)cn1 | 0.04 |
| CCCS(=O)(=O)Nc1ccc(F)c(C(=O)c2c[nH]c3ncc(-c4ccc(Cl)cc4)cc23)c1F + Cc1cnc(CNC(=O)c2c(=O)c3ccc(N4CCCN(C)CC4)nc3n3c2sc2ccccc23)cn1 | 14.5 |
| O=C(NO)c1cnc(N2CCN(S(=O)(=O)c3ccc4ccccc4c3)CC2)nc1 + Cc1cnc(CNC(=O)c2c(=O)c3ccc(N4CCCN(C)CC4)nc3n3c2sc2ccccc23)cn1 | 0.03 |

Same assay, conditions: second compound 1 µM; first compound 10 µM; active compounds read low

| Structure (SMILES) | viability, T/C [%] |
| --- | --- |
| C#Cc1c(F)ccc2cc(O)cc(-c3ncc4c(N5CC6CCC(C5)N6)nc(OCC56CCCN5CC(F)C6)nc4c3F)c12 (configuration not stated) + Cc1cnc(CNC(=O)c2c(=O)c3ccc(N4CCCN(C)CC4)nc3n3c2sc2ccccc23)cn1 | 19.8 |
| C=CCn1c(=O)c2cnc(Nc3ccc(N4CCN(C)CC4)cc3)nc2n1-c1cccc(C(C)(C)O)n1 + Cc1cnc(CNC(=O)c2c(=O)c3ccc(N4CCCN(C)CC4)nc3n3c2sc2ccccc23)cn1 | 6.9 |
| CC(C)(O)C1CCC(Nc2ccc3ncc(-c4cccc(C(F)(F)F)c4)n3n2)CC1 (configuration not stated) + Cc1cnc(CNC(=O)c2c(=O)c3ccc(N4CCCN(C)CC4)nc3n3c2sc2ccccc23)cn1 | 0.05 |
| CCCS(=O)(=O)Nc1ccc(F)c(C(=O)c2c[nH]c3ncc(-c4ccc(Cl)cc4)cc23)c1F + Cc1cnc(CNC(=O)c2c(=O)c3ccc(N4CCCN(C)CC4)nc3n3c2sc2ccccc23)cn1 | 6.86 |
| O=C(NO)c1cnc(N2CCN(S(=O)(=O)c3ccc4ccccc4c3)CC2)nc1 + Cc1cnc(CNC(=O)c2c(=O)c3ccc(N4CCCN(C)CC4)nc3n3c2sc2ccccc23)cn1 | 0.07 |

Same assay, conditions: second compound 3.16 µM; first compound 0.000999 µM; active compounds read low

| Structure (SMILES) | viability, T/C [%] |
| --- | --- |
| Cc1[nH]c2ccccc2c1CCNCc1ccc(/C=C/C(=O)NO)cc1 + Cc1cnc(CNC(=O)c2c(=O)c3ccc(N4CCCN(C)CC4)nc3n3c2sc2ccccc23)cn1 | 15.1 |

Same assay, conditions: second compound 3.16 µM; first compound 0.00316 µM; active compounds read low

| Structure (SMILES) | viability, T/C [%] |
| --- | --- |
| Cc1[nH]c2ccccc2c1CCNCc1ccc(/C=C/C(=O)NO)cc1 + Cc1cnc(CNC(=O)c2c(=O)c3ccc(N4CCCN(C)CC4)nc3n3c2sc2ccccc23)cn1 | 18.6 |

Same assay, conditions: second compound 3.16 µM; first compound 0.00999 µM; active compounds read low

| Structure (SMILES) | viability, T/C [%] |
| --- | --- |
| Cc1[nH]c2ccccc2c1CCNCc1ccc(/C=C/C(=O)NO)cc1 + Cc1cnc(CNC(=O)c2c(=O)c3ccc(N4CCCN(C)CC4)nc3n3c2sc2ccccc23)cn1 | 15.4 |

Same assay, conditions: second compound 3.16 µM; first compound 0.0316 µM; active compounds read low

| Structure (SMILES) | viability, T/C [%] |
| --- | --- |
| C#Cc1c(F)ccc2cc(O)cc(-c3ncc4c(N5CC6CCC(C5)N6)nc(OCC56CCCN5CC(F)C6)nc4c3F)c12 (configuration not stated) + Cc1cnc(CNC(=O)c2c(=O)c3ccc(N4CCCN(C)CC4)nc3n3c2sc2ccccc23)cn1 | 17 |
| C=CCn1c(=O)c2cnc(Nc3ccc(N4CCN(C)CC4)cc3)nc2n1-c1cccc(C(C)(C)O)n1 + Cc1cnc(CNC(=O)c2c(=O)c3ccc(N4CCCN(C)CC4)nc3n3c2sc2ccccc23)cn1 | 18.4 |
| CC(C)(O)C1CCC(Nc2ccc3ncc(-c4cccc(C(F)(F)F)c4)n3n2)CC1 (configuration not stated) + Cc1cnc(CNC(=O)c2c(=O)c3ccc(N4CCCN(C)CC4)nc3n3c2sc2ccccc23)cn1 | 20.8 |
| CCCS(=O)(=O)Nc1ccc(F)c(C(=O)c2c[nH]c3ncc(-c4ccc(Cl)cc4)cc23)c1F + Cc1cnc(CNC(=O)c2c(=O)c3ccc(N4CCCN(C)CC4)nc3n3c2sc2ccccc23)cn1 | 18 |
| Cc1[nH]c2ccccc2c1CCNCc1ccc(/C=C/C(=O)NO)cc1 + Cc1cnc(CNC(=O)c2c(=O)c3ccc(N4CCCN(C)CC4)nc3n3c2sc2ccccc23)cn1 | 11.8 |
| O=C(NO)c1cnc(N2CCN(S(=O)(=O)c3ccc4ccccc4c3)CC2)nc1 + Cc1cnc(CNC(=O)c2c(=O)c3ccc(N4CCCN(C)CC4)nc3n3c2sc2ccccc23)cn1 | 14.8 |
